Results published in patent publication US20230100235A1, “ANTICANCER AGENT COMPOSITION” (CARNA BIOSCIENCES, INC., priority 2020, published 2023).

Tests used:
U2932 cells [1] = experiment: Cell proliferation suppression test of single agents, U2932 (Alamar Blue, 96 h); type: cell-based, Human; conditions: Homo sapiens, U2932, single agent, read-out: Inhibitory Activity on cell proliferation IC50 U2932
Protocol: Human lymphoma cell line U2932 cells (obtained from DSMZ) were cultured in a 5% CO2 incubator using RPMI medium (Roswell Park Memorial Institute medium, Thermo Fisher Scientific Inc.) containing 10% fetal bovine serum (GE Healthcare) and 1% penicillin streptomycin (NACALAI TESQUE, INC.).
(§1) The OCI-Ly10 or U2932 cells (20000 cells/well) were seeded into 96-well plates (cell plates), to which the test compound diluted with the medium was added at final concentrations of 0.009 nM to 30000 nM (a final DMSO concentration of 0.3%), and after 96 hours of culture, an Alamar Blue reagent (Thermo Fisher Scientific Inc.) was added. After 3 hours, the fluorescence of excitation wavelength 560 nm/fluorescence wavelength 590 nm was measured and IC50 values of inhibitory activity were determined by setting a compound-free and cell-free well as 100% and a compound-free and cell-containing well as 0%.

[2] = tested on: BTK-C481S-mutant OCI-Ly10 cells; experiment: Cell proliferation suppression test of single agents, BTK-C481S-mutant OCI-Ly10; type: cell-based, Human; conditions: Homo sapiens, OCI-Ly10; single agent; read-out: Inhibitory activity on cell proliferation OCI-Ly10 BTK-C481S IC50
Protocol: as §1
(§2) BTK-C481S-mutant OCI-Ly10 cells were produced by point mutation knock-in using the CRISPR-Cas9 system. Cas9 protein (Thermo Fisher Scientific Inc.), guide RNA prepared with GeneArt™ Precision gRNA Synthesis Kit (Thermo Fisher Scientific Inc.), and a single-stranded synthetic oligonucleotide to replace 481st cysteine residue of BTK with a serine residue were introduced into OCI-Ly10 cells by an electroporation method. The resulting modified OCI-Ly10 cells were cultured in the presence of ibrutinib, and the grown cells were used as BTK-C481S-mutant OCI-Ly10 cells. Transduction of the mutation was confirmed by genomic DNA and mRNA sequence analysis.
In the same manner as in Test Example 1, IC50 values for each inhibitor single agent were determined.

OCI-Ly10 cells [3] = experiment: Cell proliferation suppression test of single agents, OCI-Ly10 (Alamar Blue, 96 h); type: cell-based, Human; conditions: Homo sapiens, OCI-Ly10, single agent, read-out: Inhibitory Activity on cell proliferation IC50 OCI-Ly10
Protocol: Human lymphoma cell line OCI-Ly10 cells (obtained from University Health Network) were cultured in a 5% CO2 incubator using IMDM medium (Iscove's Modified Dulbecco's Medium, Thermo Fisher Scientific Inc.) containing 20% fetal bovine serum (GE Healthcare) and 1% penicillin streptomycin (NACALAI TESQUE, INC.).
as §1

OCI-Ly10 cells [4] = experiment: Dose-response study of BTK inhibitor in the presence of BCL-2 inhibitor, OCI-Ly10; type: cell-based; conditions: Homo sapiens, read-out: Inhibitory activity on cell proliferation OCI-Ly10 IC50
Protocol: as §1
(§3) Changes in IC50 values of the BTK inhibitor in the presence of the BCL-2 inhibitor at various concentrations were examined.

[5] = tested on: BTK-C481S-mutant OCI-Ly10 cells; experiment: Dose-response study of BTK inhibitor in the presence of BCL-2 inhibitor, BTK-C481S-mutant OCI-Ly10; type: cell-based; conditions: Homo sapiens, read-out: Inhibitory activity on cell proliferation OCI-Ly10 BTK-C481S IC50
Protocol: as §2
BTK-C481S-mutant lymphoma cells were used to examine changes in IC50 values of the BTK inhibitor in the presence of various concentrations of BCL-2 inhibitor.
From the results obtained for the BCL-2 inhibitor used as a single agent, BCL-2 inhibitor concentrations for three doses were selected for BTK-C481-mutant OCI-Ly10 cells.

U2932 cells [6] = experiment: Dose-response study of BTK inhibitor in the presence of BCL-2 inhibitor, U2932; type: cell-based; conditions: Homo sapiens, read-out: Inhibitory activity on cell proliferation U2932 IC50
Protocol: as §1, §3
From the result obtained for the BCL-2 inhibitor used as a single agent, BCL-2 inhibitor concentrations for three doses were selected for each cancer cell line.

[7] = OCI-Ly10, in the presence of S-55746 10 nM
[8] = OCI-Ly10, in the presence of S-55746 30 nM
[9] = OCI-Ly10, in the presence of S-55746 100 nM
[10] = OCI-Ly10, in the presence of navitoclax 10 nM
[11] = OCI-Ly10, in the presence of navitoclax 30 nM
[12] = OCI-Ly10, in the presence of navitoclax 100 nM
[13] = OCI-Ly10, in the presence of obatoclax mesylate 50 nM
[14] = OCI-Ly10, in the presence of obatoclax mesylate 100 nM
[15] = OCI-Ly10, in the presence of obatoclax mesylate 200 nM
[16] = OCI-Ly10, in the presence of venetoclax 1 nM
[17] = OCI-Ly10, in the presence of venetoclax 3 nM
[18] = OCI-Ly10, in the presence of venetoclax 10 nM
[19] = OCI-Ly10, obatoclax mesylate 0 nM

**Q.** How did the IC50 (U2932 cells [1]) turn out when Cn1cc(Nc2nc(N)nc(-c3cccc(-n4ccc5cc(C6CC6)cc(F)c5c4=O)c3CO)n2)cn1 [Compound (II-A), 2-(3-{4-Amino-6-[(1-methyl-1H-pyrazol-4-yl)amino]-1,3,5-triazin-2-yl}-2-(hydroxymethyl)phenyl)-6-cyclopropyl-8-fluoroisoquinolin-1(2H)-one] was run?
**A.** 34700 nM

**Q.** And the IC50 [2]?
**A.** 150 nM

**Q.** And the IC50 (OCI-Ly10 cells [3])?
**A.** 42 nM

**Q.** And the IC50 (OCI-Ly10 cells [4]; OCI-Ly10, S-55746 0 nM)?
**A.** 33 nM

**Q.** What about the IC50 (OCI-Ly10 cells [4]; [7]) of the same compound?
**A.** 29 nM

**Q.** And the IC50 (OCI-Ly10 cells [4]; [8])?
**A.** 25 nM

**Q.** What about the IC50 (OCI-Ly10 cells [4]; [9]) of the same compound?
**A.** 18 nM

**Q.** What about the IC50 (OCI-Ly10 cells [4]; [10]) of the same compound?
**A.** 51 nM

**Q.** And the IC50 (OCI-Ly10 cells [4]; [11])?
**A.** 42 nM

**Q.** And the IC50 (OCI-Ly10 cells [4]; [12])?
**A.** 26 nM

**Q.** What about the IC50 (OCI-Ly10 cells [4]; [13]) of the same compound?
**A.** 25 nM

**Q.** What about the IC50 (OCI-Ly10 cells [4]; [14]) of the same compound?
**A.** 28 nM

**Q.** And the IC50 (OCI-Ly10 cells [4]; [15])?
**A.** 30 nM

**Q.** What about the IC50 (OCI-Ly10 cells [4]; [16]) of the same compound?
**A.** 38 nM

**Q.** What about the IC50 (OCI-Ly10 cells [4]; [17]) of the same compound?
**A.** 27 nM

**Q.** What about the IC50 (OCI-Ly10 cells [4]; [18]) of the same compound?
**A.** 19 nM

**Q.** And the IC50 (OCI-Ly10 cells [4]; OCI-Ly10, navitoclax 0 nM)?
**A.** 59 nM

**Q.** What about the IC50 (OCI-Ly10 cells [4]; [19]) of the same compound?
**A.** 38 nM

**Q.** What about the IC50 (OCI-Ly10 cells [4]; OCI-Ly10, venetoclax 0 nM) of the same compound?
**A.** 42 nM

**Q.** And the IC50 ([5]; OCI-Ly10, S-55746 0 nM)?
**A.** 150 nM

**Q.** What about the IC50 [5, 7] of the same compound?
**A.** 94 nM

**Q.** What about the IC50 [5, 8] of the same compound?
**A.** 69 nM

**Q.** And the IC50 [5, 9]?
**A.** 39 nM

**Q.** And the IC50 [5, 10]?
**A.** 260 nM

**Q.** And the IC50 [5, 11]?
**A.** 210 nM

**Q.** What about the IC50 [5, 12] of the same compound?
**A.** 110 nM

**Q.** And the IC50 [5, 13]?
**A.** 100 nM

**Q.** What about the IC50 [5, 14] of the same compound?
**A.** 95 nM

**Q.** And the IC50 [5, 15]?
**A.** 61 nM

**Q.** And the IC50 [5, 16]?
**A.** 110 nM

**Q.** What about the IC50 [5, 17] of the same compound?
**A.** 80 nM

**Q.** What about the IC50 [5, 18] of the same compound?
**A.** 53 nM

**Q.** And the IC50 ([5]; OCI-Ly10, navitoclax 0 nM)?
**A.** 340 nM

**Q.** What about the IC50 [5, 19] of the same compound?
**A.** 300 nM

**Q.** What about the IC50 ([5]; OCI-Ly10, venetoclax 0 nM) of the same compound?
**A.** 150 nM

**Q.** And the IC50 (U2932 cells [6]; U2932, S-55746 0 nM)?
**A.** > 30000 nM

**Q.** What about the IC50 (U2932 cells [6]; U2932, in the presence of S-55746 100 nM) of the same compound?
**A.** 5740 nM

**Q.** What about the IC50 (U2932 cells [6]; U2932, in the presence of S-55746 300 nM) of the same compound?
**A.** 930 nM

**Q.** What about the IC50 (U2932 cells [6]; U2932, in the presence of S-55746 1000 nM) of the same compound?
**A.** 100 nM

**Q.** What about the IC50 (U2932 cells [6]; U2932, in the presence of navitoclax 30 nM) of the same compound?
**A.** 13400 nM

**Q.** And the IC50 (U2932 cells [6]; U2932, in the presence of navitoclax 100 nM)?
**A.** 1360 nM

**Q.** And the IC50 (U2932 cells [6]; U2932, in the presence of navitoclax 300 nM)?
**A.** 100 nM

**Q.** What about the IC50 (U2932 cells [6]; U2932, in the presence of obatoclax mesylate 50 nM) of the same compound?
**A.** 28700 nM

**Q.** And the IC50 (U2932 cells [6]; U2932, in the presence of obatoclax mesylate 100 nM)?
**A.** 25800 nM

**Q.** What about the IC50 (U2932 cells [6]; U2932, in the presence of venetoclax 3 nM) of the same compound?
**A.** 8510 nM

**Q.** And the IC50 (U2932 cells [6]; U2932, in the presence of venetoclax 10 nM)?
**A.** 2190 nM

**Q.** And the IC50 (U2932 cells [6]; U2932, in the presence of venetoclax 100 nM)?
**A.** 160 nM

**Q.** What about the IC50 (U2932 cells [6]; U2932, navitoclax 0 nM) of the same compound?
**A.** > 30000 nM

**Q.** What about the IC50 (U2932 cells [6]; U2932, obatoclax mesylate 0 nM) of the same compound?
**A.** > 30000 nM

**Q.** What about the IC50 (U2932 cells [6]; U2932, venetoclax 0 nM) of the same compound?
**A.** > 30000 nM
